# In article PMC5131496, “In vitro and in vivo anti-malarial activity of novel harmine-analog heat shock protein 90 inhibitors: a possible partner for artemisinin” (Malaria Journal, 2016):
# Biological target: T1, P. falciparum heat shock protein 90 (PfHsp90) (Plasmodium falciparum, UniProt Q8IC05)
# T1 construct: gene PF3D7_0708400
# Test: bis-ANS fluorescence competitive binding assay with purified recombinant GHKL domain
# T1 sequence (Q8IC05 1-211 limits assumed): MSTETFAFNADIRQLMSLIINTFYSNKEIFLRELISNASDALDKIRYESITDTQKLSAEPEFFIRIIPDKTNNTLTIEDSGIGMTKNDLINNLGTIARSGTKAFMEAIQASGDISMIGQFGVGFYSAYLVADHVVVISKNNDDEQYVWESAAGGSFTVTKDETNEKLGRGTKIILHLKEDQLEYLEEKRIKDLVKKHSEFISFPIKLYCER
row,SMILES,IC50 [µM]
1,CC1NCCc2c1[nH]c1ccc(Br)cc21 (centres unmarked) [21A],23.1 ± 8.8
2,CC1NCCc2c1[nH]c1ccc(Cl)cc21 (centres unmarked) [17A],12.2 ± 2.3
